Laboratory results published in patent US11072588B2, “Barbituric acid derivatives comprising cationic and lipophilic groups” (UNIVERSITETET I TROMSØ—NORGES ARKTISKE UNIVERSITET, priority 2017, dated 2021).
≈ marks a conversion by molar mass, not a printed value. Like-named read-outs stand apart in the source and are kept apart here.

What was measured:
S. aureus IHT 99040 = assay: MIC, multi-resistant clinical isolate; format: cell-based, Staphylococcus aureus; settings: for selectivity index (EC50/MIC): RBC EC50 / MIC; for MIC: Staphylococcus aureus, IHT99040, read-out: Antimicrobial activity (MIC)
Description: (§1) Working solutions of the test derivatives were prepared with up to 100% DMSO and stored at −20° C. If necessary, the solutions were heated to 40-80° C. before testing to facilitate complete dissolution. Double-distilled water was used in all dilutions prepared. […] A microdilution susceptibility test was used for MIC determination according to Clinical and Laboratory Standards Institute, “Methods for Dilution Antimicrobial Sisceptibility Tests for Bacteria That Graw Aerobically”, Approved Standard M07-A9, edition 2012, with modifications as described by Igumnova et al (Bioorg Med Chem, 2016, 24 (22), 5884-5894).
(§2) Briefly, the bacterial inoculum was adjusted to approximately 2.5-3×10^4 cells/mL in Mueller-Hinton broth (MHB, Difco Laboratories, USA), and incubated in a ratio of 1:1 with test derivatives in polystyrene 96-well flat-bottom microplates (NUNC, Roskilde, Denmark). Positive growth control (without test derivatives) and negative control (without bacteria) were included. The reference antibiotic was oxytetracycline hydrochloride (Sigma Aldrich, Saint Louis, Mo., USA). The microplates were incubated in an EnVision microplate reader (Perkin-Elmer, Turku, Finland) placed in an incubator set to 35° C. for 48 h. The MIC value was defined as the lowest concentration of derivative resulting in no bacterial growth as determined by OD600 measurement. All derivatives were tested in three parallels.
(§3) The MIC was determined as explained above with some exceptions; working solutions of test derivatives were prepared from concentrated DMSO stocks stored at room temperature, the density of the bacterial inoculum was increased 40× to 1-1.2×10^6 cells/mL, enterococci were incubated in Brain Heart Infusion broth (BHIB, Difco Laboratories, USA), the microplates were incubated for 24 h, and the derivatives were tested in four parallels.

S. aureus strain WIS = assay: MIC, multi-resistant clinical isolate; format: cell-based, Staphylococcus aureus; settings: for selectivity index (EC50/MIC): RBC EC50 / MIC, S. aureus strain WIS; for MIC: Staphylococcus aureus, read-out: Antimicrobial activity (MIC)
Description: as §1, §2, §3

S. aureus N315 = assay: MIC, multi-resistant clinical isolate; format: cell-based, Staphylococcus aureus; settings: for selectivity index (EC50/MIC): RBC EC50 / MIC, S. aureus N315; for MIC: Staphylococcus aureus, N315, read-out: Antimicrobial activity (MIC)
Description: as §1, §2, §3

S. aureus strain 85/2082 = assay: MIC, multi-resistant clinical isolate; format: cell-based, Staphylococcus aureus; settings: for selectivity index (EC50/MIC): RBC EC50 / MIC, S. aureus strain 85/2082; for MIC: Staphylococcus aureus, 85/2082, read-out: Antimicrobial activity (MIC)
Description: as §1, §2, §3

S. aureus NCTC 10442 = assay: MIC, multi-resistant clinical isolate; format: cell-based, Staphylococcus aureus; settings: for selectivity index (EC50/MIC): RBC EC50 / MIC, S. aureus NCTC 10442; for MIC: Staphylococcus aureus, NCTC10442, read-out: Antimicrobial activity (MIC)
Description: as §1, §2, §3

S. epidermidis = assay: Anti-biofilm activity (inhibition of biofilm formation); format: cell-based; settings: Staphylococcus epidermidis, read-out: Anti-biofilm IC50
[1] = test system: antibiotic susceptible Gram-positive and Gram-negative reference strains; assay: MIC assay, ranges over the reference strains; format: cell-based
Description: as §1, §2

A. baumanii K55-13 = assay: MIC, multi-resistant clinical isolate; format: cell-based, Acinetobacter baumannii; settings: for MIC: Acinetobacter baumannii, K5513, read-out: Antimicrobial activity (MIC); for selectivity index (EC50/MIC): RBC EC50 / MIC
Description: as §1, §2, §3

A. baumanii K47-42 = assay: MIC, multi-resistant clinical isolate; format: cell-based, Acinetobacter baumannii; settings: for MIC: Acinetobacter baumannii, K4742, read-out: Antimicrobial activity (MIC); for selectivity index (EC50/MIC): RBC EC50 / MIC
Description: as §1, §2, §3

A. baumanii K44-35 = assay: MIC, multi-resistant clinical isolate; format: cell-based, Acinetobacter baumannii; settings: for MIC: Acinetobacter baumannii, K4435, read-out: Antimicrobial activity (MIC); for selectivity index (EC50/MIC): RBC EC50 / MIC
Description: as §1, §2, §3

A. baumanii K12-21 = assay: MIC, multi-resistant clinical isolate; format: cell-based, Acinetobacter baumannii; settings: for MIC: Acinetobacter baumannii, K1221, read-out: Antimicrobial activity (MIC); for selectivity index (EC50/MIC): RBC EC50 / MIC
Description: as §1, §2, §3

[2] = Determination of haemolytic activity; format: cell-based; settings: human red blood cells (washed, from heparinized fresh blood); human RBCs, 1 h, 37° C.; read-out: RBC: haemolytic activity against human RBCs (EC50)
Description: Hemolysis was determined using a heparinized fraction (1000 IU/mL) of freshly drawn blood. Blood collected in EDTA containing test tubes (Vacutest®, KIMA, Arzergrande, Italy) was used for determination of the hematocrit (hct). The heparinized blood was washed 3× with pre-warmed PBS and adjusted to a final hct of 4%. Derivatives in DMSO (50 mM) were added to a 96-well polypropylene V-bottom plate (NUNC, Fisher Scientific, Oslo, Norway) and serially diluted. The test concentration range was 500-4 μM with DMSO contents ≤1%. A solution of 1% triton X-100 was used as positive control for 100% hemolysis. As negative control a solution of 1% DMSO in PBS buffer was included. No signs of DMSO toxicity were detected. RBCs (1% v/v final concentration) were added to the well plate and incubated at 37° C. and 800 rpm for 1 h. After centrifugation (5 min, 3000 g), 100 μL of each well were transferred to a 96-well flat bottom plate and absorbance was measured at 545 nm with a microplate reader (VersaMax™, Molecular Devices, Sunnyvale, Calif., USA). The percentage of hemolysis was calculated as the ratio of the absorbance in the derivative-treated and surfactant treated samples, corrected for the PBS background. Three independent experiments were performed and EC50 values are presented as averages.

E. faecium 50758899 = assay: MIC, multi-resistant clinical isolate; format: cell-based, Enterococcus faecium; settings: for MIC: Enterococcus faecium, read-out: Antimicrobial activity (MIC); for selectivity index (EC50/MIC): RBC EC50 / MIC
Description: as §1, §2, §3

E. faecium TUH50-22 = assay: MIC, multi-resistant clinical isolate; format: cell-based, Enterococcus faecium; settings: for MIC: Enterococcus faecium, TUH5022, read-out: Antimicrobial activity (MIC); for selectivity index (EC50/MIC): RBC EC50 / MIC
Description: as §1, §2, §3

E. faecium K36-18 = assay: MIC, multi-resistant clinical isolate; format: cell-based, Enterococcus faecium; settings: for MIC: Enterococcus faecium, K3618, read-out: Antimicrobial activity (MIC); for selectivity index (EC50/MIC): RBC EC50 / MIC, E. faecium K36-18
Description: as §1, §2, §3

E. faecium 50901530 = assay: MIC, multi-resistant clinical isolate; format: cell-based, Enterococcus faecium; settings: for MIC: Enterococcus faecium, read-out: Antimicrobial activity (MIC); for selectivity index (EC50/MIC): RBC EC50 / MIC
Description: as §1, §2, §3

E. faecium 50673722 = assay: MIC, multi-resistant clinical isolate; format: cell-based, Enterococcus faecium; settings: for MIC: Enterococcus faecium, read-out: Antimicrobial activity (MIC); for selectivity index (EC50/MIC): RBC EC50 / MIC
Description: as §1, §2, §3

[3] = reference strains, range, read-out: MIC values against the Gram-negative bacteria E. coli and P. aeruginosa

Compound | selectivity index (EC50/MIC) (S. aureus IHT 99040) | MIC (S. aureus IHT 99040) [µg/mL] | selectivity index (EC50/MIC) (S. aureus strain WIS) | MIC (S. aureus strain WIS) [µg/mL] | selectivity index (EC50/MIC) (S. aureus N315) | MIC (S. aureus N315) [µg/mL] | selectivity index (EC50/MIC) (S. aureus strain 85/2082) | MIC (S. aureus strain 85/2082) [µg/mL] | selectivity index (EC50/MIC) (S. aureus NCTC 10442) | MIC (S. aureus NCTC 10442) [µg/mL] | IC50 (S. epidermidis) [µg/mL] | MIC (A. baumanii K55-13) [µg/mL] | selectivity index (EC50/MIC) (A. baumanii K55-13) | MIC (A. baumanii K47-42) [µg/mL] | selectivity index (EC50/MIC) (A. baumanii K47-42) | MIC (A. baumanii K44-35) [µg/mL] | selectivity index (EC50/MIC) (A. baumanii K44-35) | MIC (A. baumanii K12-21) [µg/mL] | selectivity index (EC50/MIC) (A. baumanii K12-21) | EC50 at 1 h [2] [µg/mL] | also measured
CC(C)(C)c1cc(CC2(Cc3cc(C(C)(C)C)cc(C(C)(C)C)c3)C(=O)N(CCCCN)C(=O)N(CCCCN)C2=O)cc(C(C)(C)C)c1 [7(iii), 1,3-bis(4-aminobutyl)-5,5-bis(3,5-di-tert-butylbenzyl)-pyrimidin-2,4,6(1H,3H,5H)-trione] | (<2) | 2 (≈ 2.96 µM) | (<2) | 2 (≈ 2.96 µM) | (<2) | 2 (≈ 2.96 µM) | (<2) | 2 (≈ 2.96 µM) | (<2) | 2 (≈ 2.96 µM) | 1 (≈ 1.48 µM) | 4 (≈ 5.93 µM) | (<1) | 4 (≈ 5.93 µM) | (<1) | 4 (≈ 5.93 µM) | (<1) | 4 (≈ 5.93 µM) | (<1) | < 4 | MIC ([1]; range over S. aureus, C. glutamicum, E. coli, P. aeruginosa reference strains, read-out: MIC values against all the reference strains): 0.25 to 4 µg/mL (≈ 0.37 to 5.93 µM); MIC (E. faecium 50758899): 2 µg/mL (≈ 2.96 µM); selectivity index (EC50/MIC) (E. faecium 50758899): (<2); MIC (E. faecium TUH50-22): 2 µg/mL (≈ 2.96 µM); selectivity index (EC50/MIC) (E. faecium TUH50-22): (<2); MIC (E. faecium K36-18): 2 µg/mL (≈ 2.96 µM); selectivity index (EC50/MIC) (E. faecium K36-18): (<2); MIC (E. faecium 50901530): 2 µg/mL (≈ 2.96 µM); selectivity index (EC50/MIC) (E. faecium 50901530): (<2); MIC (E. faecium 50673722): 2 µg/mL (≈ 2.96 µM); selectivity index (EC50/MIC) (E. faecium 50673722): (<2)
N=C(N)NCCCCN1C(=O)N(CCCCNC(=N)N)C(=O)C(Cc2cc(Br)cc(Br)c2)(Cc2cc(Br)cc(Br)c2)C1=O [8(ii), 1,1′-(4,4′-(5,5-bis(3,5-dibromobenzyl)-2,4,6-trioxodihydropyrimidine-1,3(2H,4H)-diyl)bis(butane-4,1-diyl))diguanidine] | (28) | 2 (≈ 2.35 µM) | (28) | 2 (≈ 2.35 µM) | (28) | 2 (≈ 2.35 µM) | (28) | 2 (≈ 2.35 µM) | (28) | 2 (≈ 2.35 µM) | 1 (≈ 1.18 µM) | 8 (≈ 9.41 µM) | (7) | 4 (≈ 4.7 µM) | (14) | 4 (≈ 4.7 µM) | (14) | 4 (≈ 4.7 µM) | (14) | 56 (≈ 65.9 µM) | MIC [1, 3]: 1 to 4 µg/mL (≈ 1.18 to 4.7 µM); MIC (E. faecium 50758899): 4 µg/mL (≈ 4.7 µM); selectivity index (EC50/MIC) (E. faecium 50758899): (14); MIC (E. faecium TUH50-22): 2 µg/mL (≈ 2.35 µM); selectivity index (EC50/MIC) (E. faecium TUH50-22): (28); MIC (E. faecium K36-18): 4 µg/mL (≈ 4.7 µM); selectivity index (EC50/MIC) (E. faecium K36-18): (14); MIC (E. faecium 50901530): 2 µg/mL (≈ 2.35 µM); selectivity index (EC50/MIC) (E. faecium 50901530): (28); MIC (E. faecium 50673722): 4 µg/mL (≈ 4.7 µM); selectivity index (EC50/MIC) (E. faecium 50673722): (14)
CC(C)(C)c1cc(CC2(Cc3cc(C(C)(C)C)cc(C(C)(C)C)c3)C(=O)N(CCCCNC(=N)N)C(=O)N(CCCCNC(=N)N)C2=O)cc(C(C)(C)C)c1 [8(iii), 1,1′-(4,4′-(5,5-bis(3,5-di-tert-butylbenzyl)-2,4,6-trioxodihydropyrimidine-1,3(2H,4H)-diyl)bis(butane-4,1-diyl))-diguanidine] | (<2) | 2 (≈ 2.63 µM) | (<2) | 2 (≈ 2.63 µM) | (<1) | 4 (≈ 5.27 µM) | (<2) | 2 (≈ 2.63 µM) | (<2) | 2 (≈ 2.63 µM) | 2 (≈ 2.63 µM) | 4 (≈ 5.27 µM) | (<1) | 4 (≈ 5.27 µM) | (<1) | 4 (≈ 5.27 µM) | (<1) | 4 (≈ 5.27 µM) | (<1) | < 4 | MIC [1, 3]: 4 µg/mL (≈ 5.27 µM); MIC (E. faecium 50758899): 2 µg/mL (≈ 2.63 µM); selectivity index (EC50/MIC) (E. faecium 50758899): (<2); MIC (E. faecium TUH50-22): 2 µg/mL (≈ 2.63 µM); selectivity index (EC50/MIC) (E. faecium TUH50-22): (<2); MIC (E. faecium K36-18): 2 µg/mL (≈ 2.63 µM); selectivity index (EC50/MIC) (E. faecium K36-18): (<2); MIC (E. faecium 50901530): 2 µg/mL (≈ 2.63 µM); selectivity index (EC50/MIC) (E. faecium 50901530): (<2); MIC (E. faecium 50673722): 2 µg/mL (≈ 2.63 µM); selectivity index (EC50/MIC) (E. faecium 50673722): (<2)
